≈ marks a conversion by molar mass, not a printed value. Calls of active or inactive are those of the source. No cut-off for these calls is given here. Where only a bound is given, the exact number is not on record here.

In data set [1] the target is T1, Hexokinase-4 (Homo sapiens, UniProt P35557).
T1 sequence (P35557 whole entry): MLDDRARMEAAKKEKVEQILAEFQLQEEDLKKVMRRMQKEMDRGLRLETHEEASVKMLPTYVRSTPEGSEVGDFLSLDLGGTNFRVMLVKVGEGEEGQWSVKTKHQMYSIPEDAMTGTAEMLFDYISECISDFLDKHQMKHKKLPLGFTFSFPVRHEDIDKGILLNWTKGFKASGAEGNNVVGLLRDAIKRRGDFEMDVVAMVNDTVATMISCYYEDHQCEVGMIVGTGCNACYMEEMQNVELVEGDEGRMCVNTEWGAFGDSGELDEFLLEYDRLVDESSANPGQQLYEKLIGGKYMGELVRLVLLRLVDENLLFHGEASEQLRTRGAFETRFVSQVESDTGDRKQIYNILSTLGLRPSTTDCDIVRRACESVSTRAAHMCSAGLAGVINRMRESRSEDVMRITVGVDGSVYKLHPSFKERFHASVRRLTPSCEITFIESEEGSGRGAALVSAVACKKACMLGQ
The experiment in a line: Activation of GST fused human liver glucokinase assessed as generation of NADPH by G6PDH coupled assay.

The nature of data set [2]: Aqueous solubility at pH 6.5 buffer. The data set is classed as physicochemical.
The nature of data set [3]: Metabolic stability in mouse liver microsomes. Type of data set: ADME, Microsome. (Liver microsomes are vesicles of endoplasmic reticulum, rich in cytochrome P450 enzymes.)
In data set [4] the test system is Rattus norvegicus. Nature of the data set: Acute toxicity in rat at >=100 mg/kg, po. As to conditions: in vivo. Type of data set: organism-based.
Data set [5] is described as follows: Plasma concentration in C57B1/6 mouse at 10 mg/kg, po after 0.5 hrs. Type of data set: ADME, organism-based. On the set-up: dose 10 mg/kg, route oral.
The nature of data set [6]: Plasma concentration in C57B1/6 mouse at 5 mg/kg, po after 0.5 hrs. Type of data set: ADME, organism-based. On the set-up: dose 5 mg/kg, route oral.
A short description of data set [7]: Cmax in Sprague-Dawley rat at 5 mg/10 mL/kg, po in 10% aqueous gelucire 44/14. The data set is classed as ADME, organism-based. The note with it: in vivo, 5 mg/kg.
Data set [8] can be described thus: Oral bioavailability in Sprague-Dawley rat at 5 mg/10 mL/kg in 10% aqueous gelucire 44/14. The data set is classed as ADME, organism-based. The note with it: in vivo, 5 mg/kg.
Data set [9] has as its system Rattus norvegicus. The experiment in a line: Toxicity in Sprague-Dawley rat at 250 mg/kg, po. Also noted: dose 250 mg/kg, route oral. Type of data set: organism-based. As to conditions: in vivo.
Data set [10] is described as follows: Half life in Sprague-Dawley rat at 5 mg/10 mL/kg, po in 10% aqueous gelucire 44/14. Type of data set: ADME, organism-based. The note with it: in vivo, 5 mg/kg.
A short description of data set [11]: Volume of distribution at steady state in Sprague-Dawley rat at 1 mg/5 mL/kg, iv in 40% DMSO. The data set is classed as ADME, organism-based. As to conditions: in vivo, 1 mg/kg, read-out: Vdss.
In data set [12] the test system is Rattus norvegicus. The experiment in a line: Reduction in blood glucose level in fasted Sprague-Dawley rat at 10 mg/kg, po for 360 mins. The data set is classed as functional, organism-based. Also noted: dose 10 mg/kg.
Data set [13] in a line: Half life in Sprague-Dawley rat at 1 mg/5 mL/kg, iv in 40% DMSO. Type of data set: ADME, organism-based. As to conditions: in vivo, 1 mg/kg.
A short description of data set [14]: AUC (0 to infinity) in Sprague-Dawley rat at 5 mg/10 mL/kg, po in 10% aqueous gelucire 44/14. The note with it: plasma, 5 mg/kg. Also noted: dose 10 mL/kg, time infinity, route oral. Type of data set: ADME, organism-based.
Data set [15] is described as follows: Cmax in Sprague-Dawley rat at 250 mg/kg, po. On the set-up: dose 250 mg/kg, route oral. As to conditions: in vivo. The data set is classed as ADME, organism-based.
Data set [16] is described as follows: AUC (0 to 24 hrs) in Sprague-Dawley rat at 250 mg/kg, po. On the set-up: time < 24 hr, dose 250 mg/kg, route oral. Type of data set: ADME, organism-based. The note with it: plasma.
The nature of data set [17]: Tmax in Sprague-Dawley rat at 5 mg/10 mL/kg, po in 10% aqueous gelucire 44/14. The data set is classed as ADME, organism-based. The note with it: in vivo, 5 mg/kg.
Data set [18] can be described thus: AUC (0 to infinity) in Sprague-Dawley rat at 1 mg/5 mL/kg, iv in 40% DMSO. Type of data set: ADME, organism-based. On the set-up: dose 5 mL/kg, time infinity, route intravenous. The note with it: plasma, 1 mg/kg.
A short description of data set [19]: Clearance in Sprague-Dawley rat at 1 mg/5 mL/kg, iv in 40% DMSO. The data set is classed as ADME, organism-based. The note with it: in vivo, 1 mg/kg.

In the case of `CS(=O)(=O)c1ccc(C(=Cc2cccs2)C(=O)Nc2nccs2)cc1`, in data set [1], the EC50 was 0.56 µM.

`CS(=O)(=O)c1ccc(C(CC2CCOCC2)C(=O)Nc2nccs2)cc1` (stereo not drawn): the solubility in [2] is 97 µg/mL (≈ 246 µM). The EC50 in [1] amounted to 8.93 µM. This compound yielded a half-life in data set [3] of more than 3.33 h.

In data set [2], `O=C(Nc1nccs1)[C@H](CC1CCOCC1)c1ccc(S(=O)(=O)C2CC2)cc1` registered a solubility of 147 µg/mL (≈ 350 µM). The EC50 in data set [1] was 0.57 µM. Also, the Activity result in [4] is on record as “Toxic”. In [5], the concentration at 0.5 h stood at 1860 ng/mL. Moreover, in data set [3], the half-life was 2.4 h.

The compound `CS(=O)(=O)c1ccc([C@@H](CC2CCOCC2)C(=O)Nc2ncc(F)s2)cc1` returned a solubility in data set [2] of 298 µg/mL (≈ 722 µM). For the same compound, the EC50 in data set [1] is 1.43 µM. The concentration at 0.5 h in data set [5] came out at 8280 ng/mL. For the same compound, in data set [3], the half-life was found to be 2.08 h.

In the case of `CS(=O)(=O)c1ccc([C@H](CC2CCOCC2)C(=O)Nc2nccs2)cc1`, the EC50 in [1] was more than 10 µM.

Compound `O=C(Nc1ncc(F)s1)[C@H](CC1CCOCC1)c1ccc(S(=O)(=O)C2CCCC2)cc1` gave a solubility in data set [2] of 24 µg/mL (≈ 51.4 µM). For the same compound, the EC50 in data set [1] is 0.07 µM. Further, in data set [5], the concentration at 0.5 h amounted to 168 ng/mL. In data set [3], the half-life is 0.267 h.

Turning to `O=C(Nc1nccs1)/C(=C/c1cccs1)c1ccccc1`, the EC50 in data set [1] turned out to be 10.8 µM.

For the compound `O=C(Nc1ncc(F)s1)[C@H](CC1CCOCC1)c1ccc(S(=O)(=O)C2CCC2)cc1`, the solubility in data set [2] was 60 µg/mL (≈ 133 µM). Besides, the EC50 in [1] was determined as 0.14 µM. Further, in data set [6], the concentration at 0.5 h was 1180 ng/mL. Besides, in [3], the half-life is 0.45 h.

`O=C(Nc1cnccn1)/C(=C/c1cccs1)c1ccccc1`: the concentration for a half-maximal effect (EC50) in data set [1] worked out at 26 µM.

Regarding `CS(=O)(=O)c1ccc(/C(=C\C2CCOCC2)C(=O)Nc2nccs2)cc1`, the concentration in solution in [2] (solubility) came to 13 µg/mL (≈ 33.1 µM). Moreover, the EC50 in [1] came to 2.3 µM. Besides, the concentration at 0.5 h in [5] is 3680 ng/mL. In data set [3], this compound returned a half-life of more than 3.33 h.

For `O=C(Nc1ncc(F)s1)[C@H](CC1CCOCC1)c1ccc(S(=O)(=O)C2CC2)cc1`, the Cmax stood at 1130 ng/mL in data set [7] and 49200 ng/mL in [15]. The bioavailability in data set [8] came out at 129%. For the same compound, in [9], the Activity entry was “Non-toxic”. Also, the results for the half-life in data set [10], in data set [13] and in data set [3] were 3.4 h, 3.2 h and 1.5 h, respectively. The compound also displayed a solubility in data set [2] of 58 µg/mL (≈ 132 µM). In addition, in [11], the Vd is 2.1 L/kg. Further, the outcome in data set [12] was Active. In data set [5], the concentration at 0.5 h is 5010 ng/mL. Also, the AUC(0-inf) in [14] turned out to be 10700 ng·h/mL; in [18] it was 1660 ng·h/mL. The AUC(0-t) at 24 h in data set [16] was found to be 898000 ng·h/mL. The Tmax in data set [17] was 1 h. This compound had a clearance in data set [19] of 10 mL/min/kg.

The compound `Cc1cnc(NC(=O)[C@H](CC2CCOCC2)c2ccc(S(=O)(=O)C3CC3)cc2)s1` returned a solubility in data set [2] of 40 µg/mL (≈ 92 µM). Further, the EC50 in data set [1] worked out at 0.58 µM. The compound also came in with a concentration at 0.5 h in data set [5] of 1640 ng/mL. Moreover, in [3], the half-life was determined as 0.883 h.

Consider `CS(=O)(=O)c1ccc([C@@H](CC2CCOCC2)C(=O)Nc2nccs2)cc1`, for which the concentration in solution in [2] (solubility) came to 410 µg/mL (≈ 1040 µM). For the same compound, the EC50 in [1] was 3.47 µM. Further, the Activity entry in [4] was “Toxic”. Further, the concentration at 0.5 h in data set [5] is 5150 ng/mL. The same compound displayed a half-life in data set [3] of more than 3.33 h.

As usually defined, the EC50 is the concentration that produces a half-maximal response. As usually defined, the solubility is how much of the substance goes into solution per volume. Low readings indicate a poorly soluble substance, high ones a readily soluble substance. As a reminder, the half-life is the time in which the quantity being followed falls by half. Broadly, the Cmax is the maximum level reached in the sampled fluid or tissue. Usually AUC(0-inf) stands for total exposure, with the tail of the curve extrapolated. A low value points to low exposure. One may read the AUC(0-t) as the area under the concentration-time curve up to a stated or last time point. Read a high AUC(0-t) as more exposure. As usually defined, the Tmax is the time from dosing to the highest level. By clearance is commonly meant the rate of elimination divided by the concentration. Low values mean inefficient removal, high ones efficient removal.

(Values after ChEMBL document CHEMBL1155108, “SAR, pharmacokinetics, safety, and efficacy of glucokinase activating 2-(4-sulfonylphenyl)-N-thiazol-2-ylacetamides: discovery of PSN-GK1” (J Med Chem, 2008).)
